Data from ChEMBL document CHEMBL3352564, “Synthesis, Structure, and SAR of Tetrahydropyran-Based LpxC Inhibitors” (ACS Med Chem Lett, 2014).
Converted amounts (≈) assume the structure as drawn.

What was measured:
[1] = target: T1, UDP-3-O-acyl-N-acetylglucosamine deacetylase (Pseudomonas aeruginosa (strain ATCC 15692 / PAO1 / 1C / PRS 101 / LMG12228), UniProt P47205); test: Inhibition of Pseudomonas aeruginosa LpxC using UDP-3-O-(R-3-hydroxydecanoyl)-N-acetylglucosamine as substrate preincubated for 20 mins before substrate addition by LC/MS/MS analysis
T1 sequence (P47205 whole entry): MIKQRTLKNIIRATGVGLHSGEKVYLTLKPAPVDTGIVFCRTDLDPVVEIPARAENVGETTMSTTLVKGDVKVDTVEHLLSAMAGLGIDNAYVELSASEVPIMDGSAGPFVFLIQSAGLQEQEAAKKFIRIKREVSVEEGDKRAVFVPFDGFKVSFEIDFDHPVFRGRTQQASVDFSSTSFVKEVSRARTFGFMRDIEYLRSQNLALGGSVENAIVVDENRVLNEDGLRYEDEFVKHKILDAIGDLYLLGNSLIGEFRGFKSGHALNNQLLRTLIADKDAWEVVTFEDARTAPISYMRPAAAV

Pseudomonas aeruginosa [2] = test: Antimicrobial activity against MexABCDXY-deficient Pseudomonas aeruginosa PAO1 ARC546 by CLSI dilution method; type: functional
Pseudomonas aeruginosa [3] = test: Antimicrobial activity against Pseudomonas aeruginosa PAO1 ARC545 by CLSI dilution method; type: functional
Escherichia coli [4] = test: Antimicrobial activity against TolC-deficient Escherichia coli ARC524 W3110 harboring mutant by CLSI dilution method; type: functional
Escherichia coli [5] = test: Antimicrobial activity against Escherichia coli ARC523 W3110 harboring mutant by CLSI dilution method; type: functional
[6] = target: 72 kDa type IV collagenase (Homo sapiens) (UniProt P08253); test: Inhibition of MMP2 (unknown origin) at 10 uM
Sequence of 72 kDa type IV collagenase (Homo sapiens) (P08253 110-660 limits assumed): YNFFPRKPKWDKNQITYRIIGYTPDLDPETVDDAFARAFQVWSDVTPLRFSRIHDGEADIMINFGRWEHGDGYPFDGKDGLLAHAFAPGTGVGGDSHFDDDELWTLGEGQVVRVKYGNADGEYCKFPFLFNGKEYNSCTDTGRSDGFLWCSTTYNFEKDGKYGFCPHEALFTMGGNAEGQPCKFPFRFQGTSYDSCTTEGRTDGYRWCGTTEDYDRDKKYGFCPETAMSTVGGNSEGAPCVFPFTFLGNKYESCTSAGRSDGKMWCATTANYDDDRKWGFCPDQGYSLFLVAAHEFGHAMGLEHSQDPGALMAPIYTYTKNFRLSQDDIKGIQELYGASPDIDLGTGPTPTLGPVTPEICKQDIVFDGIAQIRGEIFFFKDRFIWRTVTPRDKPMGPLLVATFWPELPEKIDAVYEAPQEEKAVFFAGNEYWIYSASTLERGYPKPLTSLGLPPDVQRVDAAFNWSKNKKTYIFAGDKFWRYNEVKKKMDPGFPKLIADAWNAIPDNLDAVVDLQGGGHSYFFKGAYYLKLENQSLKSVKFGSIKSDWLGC

[7] = target: Collagenase 3 (Homo sapiens) (UniProt P45452); test: Inhibition of MMP13 (unknown origin) at 10 uM
[8] = target: 72 kDa type IV collagenase (Homo sapiens) (UniProt P08253); test: Inhibition of MMP2 (unknown origin) at 30 uM
[9] = target: Collagenase 3 (Homo sapiens) (UniProt P45452); test: Inhibition of MMP13 (unknown origin) at 30 uM
[10] = target: Collagenase 3 (Homo sapiens) (UniProt P45452); test: Inhibition of MMP13 (unknown origin) at 15 uM

Compound	IC50 [1] [nM]	MIC (Pseudomonas aeruginosa [2]) [µM]	MIC (Pseudomonas aeruginosa [3]) [µM]	MIC (Escherichia coli [4]) [µM]	MIC (Escherichia coli [5]) [µM]	inhibition [6] [%]	inhibition [7] [%]	inhibition [8] [%]	inhibition [9] [%]	inhibition [10] [%]
O=C(NO)C1(COc2ccc(-c3ccccc3)cc2)CCOCC1	8.7	6.25 (≈ 2.05 µg/mL)	100 (≈ 32.7 µg/mL)	> 200	> 200	–	–	–	–	–
COC1CCC(COc2ccc(C#Cc3ccc(CN4CCOCC4)cc3)cc2)(C(=O)NO)CC1 (stereo not given)	8.6	3.13 (≈ 1.5 µg/mL)	> 200	6.25 (≈ 2.99 µg/mL)	100 (≈ 47.9 µg/mL)	–	–	–	–	–
CC(C)(O)C#CC#Cc1ccc(OCC2(C(=O)NO)CCOCC2)cc1	139	25 (≈ 8.94 µg/mL)	> 200	6.25 (≈ 2.23 µg/mL)	200 (≈ 71.5 µg/mL)	–	–	–	–	–
O=C(NO)C1(COc2ccc(C#Cc3ccc(CN4CCOCC4)cc3)cc2)CCC(O)CC1 (stereo not given)	82.5	25 (≈ 11.6 µg/mL)	> 200	25 (≈ 11.6 µg/mL)	> 200	–	–	–	–	–
O=C(NO)C1(COc2ccc(C#Cc3ccc(CN4CCN(CCN5CCOCC5)CC4)cc3)cc2)CCOCC1	2.7	0.78 (≈ 0.439 µg/mL)	50 (≈ 28.1 µg/mL)	1.56 (≈ 0.878 µg/mL)	25 (≈ 14.1 µg/mL)	–	–	–	–	–
O=C(CN1CCN(Cc2ccc(C#Cc3ccc(OCC4(C(=O)NO)CCOCC4)cc3)cc2)CC1)N1CCOCC1	1.7	12.5 (≈ 7.21 µg/mL)	> 200	25 (≈ 14.4 µg/mL)	> 200	–	–	–	–	–
COc1ccc(CNCc2ccc(C#Cc3ccc(OCC4(C(=O)NO)CCOCC4)cc3)cc2)cc1	10	6.25 (≈ 3.13 µg/mL)	100 (≈ 50.1 µg/mL)	12.5 (≈ 6.26 µg/mL)	50 (≈ 25 µg/mL)	–	–	–	–	–
CC(=O)N1CCN(Cc2ccc(C#Cc3ccc(OCC4(C(=O)NO)CCOCC4)cc3)cc2)CC1	3	0.78 (≈ 0.383 µg/mL)	50 (≈ 24.6 µg/mL)	0.39 (≈ 0.192 µg/mL)	25 (≈ 12.3 µg/mL)	–	–	–	–	–
CN(C)CC1CN(Cc2ccc(C#Cc3ccc(OCC4(C(=O)NO)CCOCC4)cc3)cc2)CCO1 (stereo not given)	5.8	3.13 (≈ 1.59 µg/mL)	100 (≈ 50.8 µg/mL)	6.25 (≈ 3.17 µg/mL)	200 (≈ 102 µg/mL)	–	–	–	–	–
O=C(NO)C1(CSc2ccc(C#Cc3ccc(CN4CCOCC4)cc3)cc2)CCOCC1	0.2	0.39 (≈ 0.182 µg/mL)	25 (≈ 11.7 µg/mL)	< 0.2	3.13 (≈ 1.46 µg/mL)	–	–	–	–	–
O=C(NO)C1(C[S+]([O-])c2ccc(C#Cc3ccc(CN4CCOCC4)cc3)cc2)CCOCC1 (racemic)	3.1	< 0.2	25 (≈ 12.1 µg/mL)	< 0.2	1.56 (≈ 0.753 µg/mL)	97	96	–	–	–
C[C@@H]1CN(Cc2ccc(C#Cc3ccc(OCC4(C(=O)NO)CCOCC4)cc3)cc2)C[C@H](C)O1	2.6	3.13 (≈ 1.5 µg/mL)	> 200	0.39 (≈ 0.187 µg/mL)	12.5 (≈ 5.98 µg/mL)	92	75	–	–	–
C[C@@H](O)[C@H](NC(=O)c1ccc(C#Cc2ccc(CN3CCOCC3)cc2)cc1)C(=O)NO	–	< 0.2	1.56 (≈ 0.682 µg/mL)	< 0.2	< 0.2	–	–	12	30	–
CC(C)N1CCN(Cc2ccc(C#Cc3ccc(OCC4(C(=O)NO)CCOCC4)cc3)cc2)CC1	7.5	3.13 (≈ 1.54 µg/mL)	100 (≈ 49.2 µg/mL)	12.5 (≈ 6.15 µg/mL)	100 (≈ 49.2 µg/mL)	–	–	–	–	–
O=C(NO)C1(COc2ccc(C#CC#Cc3ccccc3)cc2)CCOCC1	33	> 200	> 200	50 (≈ 18.8 µg/mL)	200 (≈ 75.1 µg/mL)	–	–	–	–	–
O=C(NO)C1(COc2ccc(C#Cc3ccc(CN4CCN(CCn5ccnc5)CC4)cc3)cc2)CCOCC1	2	0.78 (≈ 0.424 µg/mL)	50 (≈ 27.2 µg/mL)	0.78 (≈ 0.424 µg/mL)	6.25 (≈ 3.4 µg/mL)	93	80	–	–	–
CN1CCN(Cc2ccc(C#Cc3ccc(OCC4(C(=O)NO)CCOCC4)cc3)cc2)CC1	6.1	1.56 (≈ 0.723 µg/mL)	100 (≈ 46.4 µg/mL)	3.13 (≈ 1.45 µg/mL)	50 (≈ 23.2 µg/mL)	–	–	–	–	–
O=C(NO)C1(COc2ccc(Oc3ccccc3)cc2)CCOCC1	92	25 (≈ 8.58 µg/mL)	> 200	> 200	> 200	–	–	–	–	–
O=C(NO)C1(COc2ccc(C#Cc3ccc(CN4CCOCC4)cc3)cc2)CCOCC1	4.4	1.56 (≈ 0.703 µg/mL)	100 (≈ 45.1 µg/mL)	1.56 (≈ 0.703 µg/mL)	12.5 (≈ 5.63 µg/mL)	94	82	–	–	–
O=C(NO)C1(COc2ccc(OCc3ccccc3)cc2)CCOCC1	14	6.25 (≈ 2.23 µg/mL)	200 (≈ 71.5 µg/mL)	200 (≈ 71.5 µg/mL)	> 200	–	–	–	–	–
O=C(NO)C1(CSc2ccc(Oc3ccc(Cl)cc3)cc2)CCOCC1	7.4	6.25 (≈ 2.46 µg/mL)	50 (≈ 19.7 µg/mL)	50 (≈ 19.7 µg/mL)	> 200	–	–	–	–	99
